Experimental data published in ChEMBL document CHEMBL1156925, “Synthesis, structure-activity relationship and crystallographic studies of 3-substituted indolin-2-one RET inhibitors” (Bioorg Med Chem, 2010).

Assays:
[1] = target: T1, Receptor-type tyrosine-protein kinase FLT3 (Homo sapiens, UniProt P36888); assay: Inhibition of FLT3 by ELISA-based kinase assay
T1 sequence (P36888 whole entry): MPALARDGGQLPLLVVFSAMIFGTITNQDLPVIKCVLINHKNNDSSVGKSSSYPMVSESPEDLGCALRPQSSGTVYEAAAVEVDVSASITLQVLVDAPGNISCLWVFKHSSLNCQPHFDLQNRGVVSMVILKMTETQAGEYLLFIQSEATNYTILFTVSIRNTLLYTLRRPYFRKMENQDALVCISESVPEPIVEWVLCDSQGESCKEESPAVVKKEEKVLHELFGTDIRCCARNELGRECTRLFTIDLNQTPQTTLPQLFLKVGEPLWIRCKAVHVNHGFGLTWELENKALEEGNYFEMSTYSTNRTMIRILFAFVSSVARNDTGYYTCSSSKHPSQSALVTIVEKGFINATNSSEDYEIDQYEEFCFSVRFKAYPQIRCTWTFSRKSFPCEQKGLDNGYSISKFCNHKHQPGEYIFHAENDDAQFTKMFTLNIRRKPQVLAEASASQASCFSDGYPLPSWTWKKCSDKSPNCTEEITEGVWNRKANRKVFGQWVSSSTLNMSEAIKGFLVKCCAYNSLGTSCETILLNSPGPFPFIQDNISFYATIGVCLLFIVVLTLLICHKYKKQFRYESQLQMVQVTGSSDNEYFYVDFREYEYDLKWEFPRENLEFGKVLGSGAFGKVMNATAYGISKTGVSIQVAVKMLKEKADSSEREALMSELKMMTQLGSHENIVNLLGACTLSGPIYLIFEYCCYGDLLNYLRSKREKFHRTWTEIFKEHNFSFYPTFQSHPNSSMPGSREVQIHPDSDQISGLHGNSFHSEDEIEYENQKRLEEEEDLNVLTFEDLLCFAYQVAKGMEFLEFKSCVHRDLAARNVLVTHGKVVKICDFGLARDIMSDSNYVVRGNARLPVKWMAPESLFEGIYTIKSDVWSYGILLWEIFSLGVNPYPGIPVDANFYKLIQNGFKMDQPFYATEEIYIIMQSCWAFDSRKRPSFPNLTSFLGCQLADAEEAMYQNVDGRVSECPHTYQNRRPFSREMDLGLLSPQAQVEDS

cells [2] = settings: Mus musculus, BaPTC2
[3] = target: Tyrosine-protein kinase ABL1 (Homo sapiens, UniProt P00519)
cells [4] = settings: Mus musculus, BaF3
[5] = target: ALK tyrosine kinase receptor (Homo sapiens, UniProt Q9UM73); assay: Inhibition of ALK by ELISA-based kinase assay
Chain of ALK tyrosine kinase receptor (Q9UM73 whole entry): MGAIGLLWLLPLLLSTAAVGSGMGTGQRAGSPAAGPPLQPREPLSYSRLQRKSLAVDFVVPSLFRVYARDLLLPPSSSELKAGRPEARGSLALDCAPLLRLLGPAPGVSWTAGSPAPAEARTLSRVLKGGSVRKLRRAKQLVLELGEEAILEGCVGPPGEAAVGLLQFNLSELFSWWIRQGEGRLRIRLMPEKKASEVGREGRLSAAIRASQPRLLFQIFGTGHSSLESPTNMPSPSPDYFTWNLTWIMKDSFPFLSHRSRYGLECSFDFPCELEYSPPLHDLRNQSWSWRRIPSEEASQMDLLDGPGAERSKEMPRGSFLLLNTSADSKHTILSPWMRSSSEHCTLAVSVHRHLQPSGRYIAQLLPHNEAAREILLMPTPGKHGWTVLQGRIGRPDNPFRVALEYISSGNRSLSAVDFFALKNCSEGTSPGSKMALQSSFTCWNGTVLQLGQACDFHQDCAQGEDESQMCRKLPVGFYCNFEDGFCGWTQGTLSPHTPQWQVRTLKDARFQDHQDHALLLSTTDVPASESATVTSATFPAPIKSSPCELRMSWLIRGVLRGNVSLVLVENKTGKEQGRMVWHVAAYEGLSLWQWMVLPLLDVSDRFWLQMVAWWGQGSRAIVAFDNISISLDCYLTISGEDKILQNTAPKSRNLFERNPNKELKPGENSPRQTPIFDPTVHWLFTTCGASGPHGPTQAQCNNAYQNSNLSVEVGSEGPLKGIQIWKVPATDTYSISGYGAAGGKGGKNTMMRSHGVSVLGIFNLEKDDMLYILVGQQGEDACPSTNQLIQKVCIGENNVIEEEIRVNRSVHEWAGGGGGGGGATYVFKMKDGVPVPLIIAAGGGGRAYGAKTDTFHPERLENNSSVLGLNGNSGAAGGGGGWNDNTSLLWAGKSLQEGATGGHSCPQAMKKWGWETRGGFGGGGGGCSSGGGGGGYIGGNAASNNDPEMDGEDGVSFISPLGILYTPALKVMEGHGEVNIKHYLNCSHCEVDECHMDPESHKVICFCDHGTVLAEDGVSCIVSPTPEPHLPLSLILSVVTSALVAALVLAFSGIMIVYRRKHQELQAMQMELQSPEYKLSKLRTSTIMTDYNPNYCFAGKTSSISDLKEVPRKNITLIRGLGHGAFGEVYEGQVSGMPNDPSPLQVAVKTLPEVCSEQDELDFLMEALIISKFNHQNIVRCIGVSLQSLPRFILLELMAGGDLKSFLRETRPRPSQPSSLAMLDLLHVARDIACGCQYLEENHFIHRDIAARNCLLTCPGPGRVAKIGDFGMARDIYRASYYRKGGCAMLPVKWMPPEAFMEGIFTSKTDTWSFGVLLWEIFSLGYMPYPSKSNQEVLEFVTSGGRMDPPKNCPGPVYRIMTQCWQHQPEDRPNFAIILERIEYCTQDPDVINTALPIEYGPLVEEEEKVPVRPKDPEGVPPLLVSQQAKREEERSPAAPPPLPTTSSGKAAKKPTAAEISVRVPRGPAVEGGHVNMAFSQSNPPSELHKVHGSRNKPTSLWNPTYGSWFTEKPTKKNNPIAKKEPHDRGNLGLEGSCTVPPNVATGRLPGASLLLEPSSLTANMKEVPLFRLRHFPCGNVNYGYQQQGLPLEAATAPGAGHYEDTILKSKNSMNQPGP

Chain of Tyrosine-protein kinase ABL1 (P00519 whole entry): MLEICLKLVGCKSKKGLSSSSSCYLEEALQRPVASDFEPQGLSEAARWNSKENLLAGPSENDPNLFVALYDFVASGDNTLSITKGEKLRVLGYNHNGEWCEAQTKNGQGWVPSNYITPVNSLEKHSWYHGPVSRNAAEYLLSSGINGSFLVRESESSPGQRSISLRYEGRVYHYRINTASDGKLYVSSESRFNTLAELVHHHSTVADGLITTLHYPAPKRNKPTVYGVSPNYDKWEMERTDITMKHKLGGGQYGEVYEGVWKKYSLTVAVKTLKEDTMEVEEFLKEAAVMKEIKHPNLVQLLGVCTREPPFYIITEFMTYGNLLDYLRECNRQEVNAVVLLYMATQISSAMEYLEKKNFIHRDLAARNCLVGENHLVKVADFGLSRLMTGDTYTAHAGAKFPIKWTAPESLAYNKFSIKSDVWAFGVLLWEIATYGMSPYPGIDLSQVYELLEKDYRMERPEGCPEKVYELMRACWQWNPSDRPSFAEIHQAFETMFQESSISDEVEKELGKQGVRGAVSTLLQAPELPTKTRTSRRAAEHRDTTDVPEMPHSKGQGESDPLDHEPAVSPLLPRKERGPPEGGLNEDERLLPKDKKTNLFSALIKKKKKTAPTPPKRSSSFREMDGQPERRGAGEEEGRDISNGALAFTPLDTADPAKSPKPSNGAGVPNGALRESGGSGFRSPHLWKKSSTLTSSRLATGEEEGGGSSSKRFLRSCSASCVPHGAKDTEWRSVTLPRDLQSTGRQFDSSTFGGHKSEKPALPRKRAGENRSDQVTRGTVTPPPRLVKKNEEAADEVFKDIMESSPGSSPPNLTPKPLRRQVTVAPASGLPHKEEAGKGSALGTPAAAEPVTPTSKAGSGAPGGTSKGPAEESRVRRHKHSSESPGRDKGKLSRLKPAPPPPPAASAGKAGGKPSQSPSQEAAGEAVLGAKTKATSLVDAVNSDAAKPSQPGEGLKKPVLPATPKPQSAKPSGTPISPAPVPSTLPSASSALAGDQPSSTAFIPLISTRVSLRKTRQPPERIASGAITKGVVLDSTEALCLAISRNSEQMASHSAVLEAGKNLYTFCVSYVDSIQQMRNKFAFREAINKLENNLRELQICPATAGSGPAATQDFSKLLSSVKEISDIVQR

| IC50 [1] | IC50 (cells [2]) | IC50 [3] | IC50 (cells [4]) | IC50 [5] | SMILES |
| --- | --- | --- | --- | --- | --- |
| 1.8 µM | 16 µM | > 50 µM | > 50 µM | > 50 µM | O=C1Nc2ccccc2/C1=C\c1ccc(O)cc1 |
| 0.4 µM | 10 µM | > 50 µM | 10 µM | > 50 µM | Cc1cccc2c1/C(=C/c1ccc(N(C)C)c3ccccc13)C(=O)N2 |

Second part, the molecule before the results:

| SMILES | IC50 [1] | IC50 (cells [2]) | IC50 [3] | IC50 (cells [4]) | IC50 [5] |
| --- | --- | --- | --- | --- | --- |
| CN(C)S(=O)(=O)c1ccc2c(c1)/C(=C/c1cc3c([nH]1)CCCC3)C(=O)N2 | 8.7 µM | 0.16 µM | > 50 µM | 0.18 µM | 18 µM |
| CCOC(=O)c1c(C)[nH]c(/C=C2\C(=O)Nc3ccccc32)c1C | 4.3 µM | 0.025 µM | 19 µM | 2.6 µM | 5.4 µM |
| CCN(CC)CCNC(=O)c1c(C)[nH]c(/C=C2\C(=O)Nc3ccc(F)cc32)c1C [SUNITINIB] |  | 0.22 µM |  | 1.2 µM |  |
